# According to patent publication US20260284189A1, “TREATMENT OF NON-SMALL CELL LUNG CANCER” (ASTRAZENECA AB, priority 2023, published 2026):
# Tests used:
# xenograft model = conditions: via a T-cell dependent mechanism; cited from earlier work
# [1] = system: resectable non-small cell lung cancer (R-NSCLC); test: AEGEAN phase III: pathological response (pCR, MPR) by central pathology review; type: in vivo, human; conditions: final analysis
# Description: As used herein, the terms “pathological complete response” or “pathological CR” or “pCR” refer to the proportion of patients who have 0% residual viable tumor cells within all resected tissue (including primary lung lesion and lymph nodes) following neoadjuvant treatment as assessed by central pathology laboratory. […] Central pathology assessment of pCR will be performed according to the recommended methods and definitions described by IASLC 2020 (Travis et al. “IASLC Multidisciplinary Recommendations for Pathologic Assessment of Lung Cancer Resection Specimens After Neoadjuvant Therapy.” J Thorac Oncol. 2020 May; 15(5):709-740. doi:10.1016/j.jtho.2020.01.005). The analysis can be performed using a Cochran-Mantel-Haenszel (CMH) test, stratified by disease stage (Stage II versus Stage III) and PD-L1 expression status (<1% versus ≥1%). The effect of treatment will be estimated by the difference in proportions between treatment groups, together with their corresponding CI and p-value.
# As used herein, the terms “major pathological response” and “mPR” refer to the proportion of patients with 10% or less residual viable tumor tissue in lung primary tumor after neoadjuvant treatment at the time of resection as assessed per central pathology laboratory. […]
# Primary tumors and sampled lymph nodes were assessed for pathological response to neoadjuvant treatment by central pathology review using recommendations from the IASLC. […] 2020 May; 15(5):709-740. doi: 10.1016/j.jtho.2020.01.005; Hellmann et al. “Pathological response after neoadjuvant chemotherapy in resectable non-small-cell lung cancers: proposal for the use of major pathological response as a surrogate endpoint.” Lancet Oncol 2014; 15(1):e42-50; Cottrell et al. “Pathologic features of response to neoadjuvant anti-PD-1 in resected non-small-cell lung carcinoma: a proposal for quantitative immune-related pathologic response criteria (irPRC).” Ann Oncol 2018; 29(8):1853-1860). […]
# For pathological endpoints, response rates were compared between treatment arms using a stratified Cochran-Mantel-Haenszel test; the treatment effect was estimated by the differences in response rates, with their corresponding 95% confidence intervals (CIs) calculated by the stratified Miettinen and Nurminen method. EFS was compared between the treatment arms using a stratified log-rank test; the treatment effect was estimated by HRs and 95% CIs calculated with stratified Cox-proportional-hazards models. […] For pCR, the differences in response rates were calculated for each subgroup, with corresponding 95% CIs estimated using an unstratified Miettinen and Nurminen method; for EFS, HRs and 95% CIs were calculated for each subgroup using a Cox-proportional-hazards model with treatment as the only covariate.
# [2] = system: PD-L1-mediated suppression of human T-cell activation; conditions: in vitro; cited from earlier work
substance,measurement,setting,value
Durvalumab: antibody that selectively binds PD-L1 and blocks binding of PD-L1 to PD-1 and CD80; arm given with platinum-based chemotherapy before surgery,tumor growth in a xenograft model,xenograft model,inhibits tumor growth in a xenograft model
same,"MPR, proportion of patients","[1]; mITT N=366, central review",33.3%
same,"pCR, proportion of patients","[1]; mITT N=366, central review",17.2%
same,"MPR difference in proportions, durvalumab arm versus placebo arm",[1]; mITT N=740,21.0
same,"pCR difference in proportions, durvalumab arm versus placebo arm",[1]; mITT N=740,13.0%
same,PD-L1-mediated suppression of human T-cell activation,[2],can relieve PD-L1-mediated suppression of human T-cell activation in vitro
